# In patent US20210330611A1, “THERAPY FOR NEUROLOGICAL DISEASES/DISORDERS” (priority 2020, published 2021):
# Structures can show the parent of a compound that is named as a salt. Where two headings read alike, the source gives them in different places.
# Experiments:
# primary rat microglia [1] = system: primary rat microglia;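 for Fibrin % cell toxicity: share of dead cells sized under 150 µm2 at 10 µM in fibrin-stimulated microglia HTS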
# [2] = system: LPS-induced microglia activation; assay: Image-based assay of LPS-induced microglia activation (HTS and dose response); assay type: cell-based, rat
# [3] = system: fibrin- and LPS-induced microglia activation; assay: cells; assay type: cell-based, rat
# primary rat microglia [4] = system: primary rat microglia; remark: listed apart in the source;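 for Fibrin % cell toxicity: share of dead cells sized under 150 µm2 at 10 µM in fibrin-stimulated microglia HTS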
# [5] = system: fibrin-induced microglia activation; assay: Image-based assay of fibrin-induced microglia activation (HTS and dose response); assay type: cell-based, rat; settings: for inhibition at 10 µM: read-out: Fibrin % inhibition
# [6] = Rattus norvegicus, Microglia, read-out: LPS % inhibition
# [7] = Rattus norvegicus, Microglia, 48 h, read-out: LPS % inhibition
# [8] = quadrant by fibrin and LPS inhibition in HTS of 1907 compounds
# [9] = read-out: LPS IC50 (uM) (Suppl. Table 7)
# [10] = read-out: Fibrin IC50 (uM) (Suppl. Table 7)
# [11] = Rattus norvegicus, Microglia, primary microglia HTS, LPS stimulation, compounds at 10 μM; read-out: LPS % inhibition
# [12] = quadrant by fibrin and LPS inhibition, HTS at 10 μM
# [13] = Rattus norvegicus, Microglia, primary microglia HTS, fibrin stimulation, compounds at 10 μM
# [14] = Rattus norvegicus, Microglia, primary microglia HTS, 10 μM, LPS-stimulated, cell size >800 μm^2 as marker of activation; read-out: LPS % inhibition
# [15] = HTS of 1907 compounds, quadrant by fibrin and LPS inhibition
# [16] = Rattus norvegicus, Microglia, primary microglia HTS, 10 μM, fibrin-stimulated, cell size >800 μm^2 as marker of activation
# [17] = Rattus norvegicus, Microglia, 48 h; read-out: LPS % inhibition
# [18] = classification by fibrin and LPS inhibition in HTS
# [19] = Rattus norvegicus, Microglia, primary microglia HTS, fibrin stimulation, cell size >800 μm2 as marker of activation
# [20] = classification by fibrin and LPS inhibition, HTS at 10 μM
compound,measurement,setting,value
"CO[C@@]12[C@H](COC(N)=O)C3=C(C(=O)C(C)=C(N)C3=O)N1C[C@@H]1N[C@@H]12 [Mitomycin C, Mitomycin]",Fibrin % cell toxicity,primary rat microglia [1],74%
same,LPS % inhibition,[2]; 10 µM,110%
same,Quadrant (FIG. 5b),[3],Q2
same,LPS % cell toxicity,primary rat microglia [4],49%
same,Fibrin % inhibition,[5]; 10 µM,112%
CN1CCC(=C2c3ccccc3C=Cc3ccccc32)CC1 [Cyproheptadine],Fibrin % cell toxicity,primary rat microglia [1]; rat,1%
same,inhibition at 10 µM,[2]; [6],43%
same,Quadrant (FIG. 5b),[3],Q4
same,LPS % cell toxicity,primary rat microglia [4]; rat,1%
same,inhibition at 10 µM,"[5]; Rattus norvegicus, Microglia",24%
NNc1nncc2ccccc12 [Hydralazine],Fibrin % cell toxicity,primary rat microglia [1]; rat,1%
same,inhibition at 10 µM,[2]; [7],22%
same,Quadrant (FIG. 5b),[3],Q4
same,LPS % cell toxicity,primary rat microglia [4]; rat,0%
same,inhibition at 10 µM,"[5]; Rattus norvegicus, Microglia",-13%
Clc1ccc(COC(Cn2ccnc2)c2ccc(Cl)cc2Cl)cc1 (centres unmarked) [Econazole],Fibrin % cell toxicity,primary rat microglia [1]; rat,0%
same,inhibition at 10 µM,[2]; [6],18%
same,Quadrant (FIG. 5b),[3],Q4
same,LPS % cell toxicity,primary rat microglia [4]; rat,0%
same,inhibition at 10 µM,"[5]; Rattus norvegicus, Microglia",0%
Sc1ncnc2nc[nH]c12 [Mercaptopurine],Fibrin % cell toxicity,primary rat microglia [1]; rat,0%
same,inhibition at 10 µM,"[2]; Rattus norvegicus, Microglia, 48 h, primary microglia HTS, LPS stimulation; increased cell size (>800 μm^2) as marker of activation; read-out: LPS % inhibition",9%
same,Quadrant (FIG. 5b),[3]; [8],Q4
same,LPS % cell toxicity,primary rat microglia [4]; rat,0%
same,inhibition at 10 µM,"[5]; Rattus norvegicus, Microglia, primary microglia HTS, fibrin stimulation, increased cell size (>800 μm^2) as marker of activation",2%
"C[C@@H]1C[C@H]2[C@@H]3C[C@H](F)C4=CC(=O)C=C[C@]4(C)[C@@]3(F)[C@@H](O)C[C@]2(C)[C@@]1(O)C(=O)COC(=O)C(C)(C)C [Flumethazone pivalate, reference compound]",Fibrin % cell toxicity,primary rat microglia [1],1%
same,IC50,primary rat microglia [1],> 20000 nM
same,LPS % inhibition,[2],94%
same,LPS specificity,[2],1.0
same,LPS_HS,[2],0.00
same,IC50,[2]; read-out: LPS IC50,0.004 µM
same,IC50,[2]; [9],0.004 µM
same,Activity,[3],fib/LPS
same,Cherry-picked Hit (Suppl. Table 7),[3],HIT (key: HIT: Hits were defined as molecules that exhibited greater than 50% inhibition of either fibrin or LPS activation)
same,Hit,[3],HIT (key: HIT: Hits were defined as molecules that exhibited greater than 50% inhibition of either fibrin or LPS activation)
same,Quadrant (FIG. 5b),[3],Q2
same,IC50,primary rat microglia [4],> 20000 nM
same,LPS % cell toxicity,primary rat microglia [4],3%
same,Fibrin % inhibition,[5],101%
same,Fibrin Selectivity,[5],4
same,Fibrin Selectivity (LOG10),[5],0.58
same,fib specificity,[5],1.0
same,fib_HS,[5],−0.23
same,IC50,[5]; read-out: Fibrin IC50,< 0.001 µM
same,IC50,[5]; [10],< 0.001 µM
"CC(=O)OCC(=O)[C@@]1(O)[C@H](C)C[C@H]2[C@@H]3CCC4=CC(=O)C=C[C@]4(C)[C@@]3(F)[C@@H](O)C[C@@]21C [Dexamethasone acetate, reference compound]",Fibrin % cell toxicity,primary rat microglia [1]; rat,4%
same,inhibition at 10 µM,[2]; [7],105%
same,IC50,"[2]; Rattus norvegicus, Microglia, read-out: LPS_IC50 (uM)",0.002 µM
same,Quadrant (FIG. 5b),[3],Q2
same,LPS % cell toxicity,primary rat microglia [4]; rat,7%
same,inhibition at 10 µM,"[5]; Rattus norvegicus, Microglia",112%
same,IC50,"[5]; Rattus norvegicus, Microglia, read-out: fib_IC50 (uM)",0.002 µM
CCCCCCCCCCCCCCCC(=O)OC[C@H](O)[C@H]1OC(=O)C(O)=C1O [Ascorbyl Palmitate],Fibrin % cell toxicity,primary rat microglia [1]; rat,1%
same,inhibition at 10 µM,[2]; [11],20%
same,Quadrant (FIG. 5b),[3]; [12],Q4
same,LPS % cell toxicity,primary rat microglia [4]; rat,0%
same,inhibition at 10 µM,[5]; [13],38%
CCCC(CCC)C(=O)O [Valproic Acid],Fibrin % cell toxicity,primary rat microglia [1]; rat,0%
same,inhibition at 10 µM,[2]; [14],27%
same,Quadrant (FIG. 5b),[3]; [15],Q4
same,LPS % cell toxicity,primary rat microglia [4]; rat,0%
same,inhibition at 10 µM,[5]; [16],-28%
CO[C@H]1/C=C/O[C@@]2(C)Oc3c(C)c(O)c4c(c3C2=O)C2=NC3(CCN(CC(C)C)CC3)NC2=C(NC(=O)/C(C)=C\C=C\[C@H](C)[C@H](O)[C@@H](C)[C@@H](O)[C@@H](C)[C@H](OC(C)=O)[C@@H]1C)C4=O [Rifabutin],Fibrin % cell toxicity,primary rat microglia [1]; rat,0%
same,inhibition at 10 µM,[2]; [17],2%
same,Quadrant (FIG. 5b),[3]; [18],Q4
same,LPS % cell toxicity,primary rat microglia [4]; rat,0%
same,inhibition at 10 µM,[5]; [19],-51%
C=CCN1CC[C@]23c4c5ccc(O)c4O[C@H]2C(=O)CC[C@@]3(O)[C@H]1C5 [Naloxone Hydrochloride],Fibrin % cell toxicity,primary rat microglia [1]; rat,0%
same,LPS % inhibition,[2],11%
same,Quadrant (FIG. 5b),[3],Q4
same,LPS % cell toxicity,primary rat microglia [4]; rat,0%
same,Fibrin % inhibition,[5],−16%
Hydrocortisone hemisuccinate [reference compound],Fibrin % cell toxicity,primary rat microglia [1],1%
same,IC50,primary rat microglia [1],> 20000 nM
same,LPS % inhibition,[2],64%
same,LPS specificity,[2],0.1
same,LPS_HS,[2],−1.10
same,IC50,[2]; read-out: LPS IC50,7 µM
same,IC50,[2]; [9],7 µM
same,IC50,[2]; read-out: LPS_IC50,0.036 µM
same,Activity,[3],fib/LPS
same,Cherry-picked Hit (Suppl. Table 7),[3],HIT (key: HIT: Hits were defined as molecules that exhibited greater than 50% inhibition of either fibrin or LPS activation)
same,Hit,[3],HIT (key: HIT: Hits were defined as molecules that exhibited greater than 50% inhibition of either fibrin or LPS activation)
same,Quadrant (FIG. 5b),[3],Q2
same,IC50,primary rat microglia [4],> 20000 nM
same,LPS % cell toxicity,primary rat microglia [4],1%
same,Fibrin % inhibition,[5],100%
same,fib specificity,[5],8.4
same,fib_HS,[5],−0.39
same,IC50,[5]; read-out: Fibrin IC50,0.02 µM
same,IC50,[5]; [10],0.02 µM
same,IC50,[5]; read-out: fib_IC50,0.004 µM
CC[C@]1(O)C[C@H]2CN(CCc3c([nH]c4ccccc34)[C@@](C(=O)OC)(c3cc4c(cc3OC)N(C=O)[C@H]3[C@@](O)(C(=O)OC)[C@H](OC(C)=O)[C@]5(CC)C=CCN6CC[C@]43[C@@H]65)C2)C1 [Vincristine Sulfate],Fibrin % cell toxicity,primary rat microglia [1]; rat,16%
same,LPS % inhibition,"[2]; primary microglia HTS, LPS stimulation, compounds at 10 μM; 10 µM",119%
same,Quadrant (FIG. 5b),[3]; [12],Q2
same,LPS % cell toxicity,primary rat microglia [4]; rat,7%
same,Fibrin % inhibition,"[5]; primary microglia HTS, fibrin stimulation, compounds at 10 μM, 10 µM",108%
"CC(=O)O[C@H]1C(=O)[C@@]2(C)[C@H]([C@H](OC(=O)c3ccccc3)[C@]3(O)C[C@H](OC(=O)[C@H](O)[C@@H](NC(=O)c4ccccc4)c4ccccc4)C(C)=C1C3(C)C)[C@]1(OC(C)=O)CO[C@@H]1C[C@@H]2O [Taxol, Paclitaxel]",Fibrin % cell toxicity,primary rat microglia [1],1%
same,LPS % inhibition,"[2]; primary microglia HTS, 10 μM, LPS-stimulated, cell size >800 μm^2 as marker of activation",19%
same,Quadrant (FIG. 5b),[3]; [15],Q4
same,LPS % cell toxicity,primary rat microglia [4],1%
same,Fibrin % inhibition,"[5]; primary microglia HTS, 10 μM, fibrin-stimulated, cell size >800 μm^2 as marker of activation",45%
Nc1ccc(S(=O)(=O)c2ccc(N)cc2)cc1 [Dapsone],Fibrin % cell toxicity,primary rat microglia [1]; rat,1%
same,inhibition at 10 µM,[2]; [11],11%
same,Quadrant (FIG. 5b),[3]; [20],Q4
same,LPS % cell toxicity,primary rat microglia [4]; rat,0%
same,inhibition at 10 µM,[5]; [13],-23%
CN(C)C(=S)SSC(=S)N(C)C [Thiram],Fibrin % cell toxicity,primary rat microglia [1]; rat,91%
same,inhibition at 10 µM,[2]; [11],126%
same,Quadrant (FIG. 5b),[3]; [12],Q2
same,LPS % cell toxicity,primary rat microglia [4]; rat,64%
same,inhibition at 10 µM,[5]; [13],109%
Nc1ccc(S(=O)(=O)Nc2ncccn2)cc1 [Sulfadiazine],Fibrin % cell toxicity,primary rat microglia [1]; rat,0%
same,inhibition at 10 µM,[2]; [6],13%
same,Quadrant (FIG. 5b),[3],Q4
same,LPS % cell toxicity,primary rat microglia [4]; rat,0%
same,inhibition at 10 µM,"[5]; Rattus norvegicus, Microglia",-19%
Nc1ccc(S(=O)(=O)Nc2ccccn2)cc1 [Sulfapyridine],Fibrin % cell toxicity,primary rat microglia [1]; rat,1%
same,inhibition at 10 µM,[2]; [14],20%
same,Quadrant (FIG. 5b),[3]; [15],Q4
same,LPS % cell toxicity,primary rat microglia [4]; rat,0%
same,inhibition at 10 µM,[5]; [16],-37%
CC=CC(=O)N(CC)c1ccccc1C [Crotamiton],Fibrin % cell toxicity,primary rat microglia [1],0%
same,LPS % inhibition,"[2]; primary microglia HTS, LPS stimulation, compounds at 10 μM",3%
same,Quadrant (FIG. 5b),[3]; [20],Q4
same,LPS % cell toxicity,primary rat microglia [4],0%
same,Fibrin % inhibition,"[5]; primary microglia HTS, fibrin stimulation, compounds at 10 μM",12%
O=C(CCCN1CCC(O)(c2ccc(Cl)cc2)CC1)c1ccc(F)cc1 [Haloperidol],Fibrin % cell toxicity,primary rat microglia [1]; rat,1%
same,inhibition at 10 µM,[2]; [7],12%
same,Quadrant (FIG. 5b),[3],Q4
same,LPS % cell toxicity,primary rat microglia [4]; rat,1%
same,inhibition at 10 µM,"[5]; Rattus norvegicus, Microglia",-22%
"CCCCc1nc(Cl)c(CO)n1Cc1ccc(-c2ccccc2-c2nnn[nH]2)cc1 [Losartan, Losartan Potassium]",Fibrin % cell toxicity,primary rat microglia [1],1%
same,LPS % inhibition,"[2]; primary microglia HTS, LPS stimulation; increased cell size (>800 μm^2) as marker of activation",19%
same,Quadrant (FIG. 5b),[3]; [8],Q4
same,LPS % cell toxicity,primary rat microglia [4],1%
same,Fibrin % inhibition,"[5]; primary microglia HTS, fibrin stimulation, increased cell size (>800 μm^2) as marker of activation",−3%
CN[C@H](CC(C)C)C(=O)N[C@H]1C(=O)N[C@@H](CC(N)=O)C(=O)N[C@H]2C(=O)N[C@H]3C(=O)N[C@H](C(=O)N[C@H](C(=O)O)c4cc(O)cc(O)c4-c4cc3ccc4O)[C@H](O)c3ccc(c(Cl)c3)Oc3cc2cc(c3O[C@@H]2O[C@H](CO)[C@@H](O)[C@H](O)[C@H]2O[C@H]2C[C@](C)(N)[C@H](O)[C@H](C)O2)Oc2ccc(cc2Cl)[C@H]1O [Vancomycin Hydrochloride],Fibrin % cell toxicity,primary rat microglia [1]; rat,1%
same,LPS % inhibition,[2]; 10 µM,9%
same,Quadrant (FIG. 5b),[3],Q4
same,LPS % cell toxicity,primary rat microglia [4]; rat,0%
same,Fibrin % inhibition,[5]; 10 µM,−20%
CC(C)NCC(O)c1ccc(NS(C)(=O)=O)cc1 (centres unmarked) [Sotalol],Fibrin % cell toxicity,primary rat microglia [1]; rat,1%
same,inhibition at 10 µM,[2]; [17],6%
same,Quadrant (FIG. 5b),[3]; [18],Q4
same,LPS % cell toxicity,primary rat microglia [4]; rat,0%
same,inhibition at 10 µM,[5]; [19],6%
COc1ccc(Cc2cnc(N)nc2N)cc1OC [Diaveridine],Fibrin % cell toxicity,primary rat microglia [1]; rat,1%
same,inhibition at 10 µM,[2]; [11],13%
same,Quadrant (FIG. 5b),[3]; [20],Q4
same,LPS % cell toxicity,primary rat microglia [4]; rat,1%
same,inhibition at 10 µM,[5]; [13],-8%
